Measurements taken from paper PMC12751141, “Disrupting α-Synuclein–ClpP interaction restores mitochondrial function and attenuates neuropathology in Parkinson’s disease models” (Molecular Neurodegeneration, 2025).
pIC50: −log10 of the molar value. Entries after “also recorded” stand apart in the source; their conditions may differ.

How the values were obtained:
wild-type littermates = experiment: Observed effects on wild-type littermates; type: in vivo, mouse; conditions: 3 mg/kg/day s.c.; WT littermates
Description: (§1) C57BL/6 N-Tg (Thy1-SNCA)15Mjff/J (JAX: 017682) breeders (C57Bl/6NJ genetic background) were purchased from Jackson Laboratories. The mice were mated, bred, and genotyped in the animal facility of Case Western Reserve University. All mice were maintained at a 12-hour light/dark cycle (on 6 am, off 6 pm). All randomization and peptide treatments in mThy1-hSNCA mice were prepared by an experimenter not associated with the behavioral and neuropathology analysis. Only male mice were used in the study. mThy1-hSNCA transgenic mice and their age-matched WT littermates were implanted with a 28-day subcutaneous osmotic pump (Alzet, Cupertino CA, Model 2004) containing either TAT control peptide or CS2 peptide, which delivered the peptides at indicated rate (1 or 3 or 10 mg/kg/day). The pump was replaced once every four weeks. All mice were sacrificed at age of 10-month for neuropathology assessment.
All behavioral analyses were conducted by an experimenter who was blinded to the genotypes and treatment groups. All mice were subjected to a series of behavioral measurements to monitor locomotor activity (open field test), spontaneous spatial working memory (Y-maze test), and motor coordination (Rotarod test).

mThy1-hSNCA mice [1] = experiment: Y-maze test in mThy1-hSNCA mice; type: in vivo, mouse
Description: as §1
On the test day, mice at 6-month-old were brought to the testing room one hour before performing the Y-maze test to allow habituation. The mice were placed in the middle of the Y-maze and allowed to explore the three arms for 4-min. During exploration, the arm entries were recorded. The equipment was cleaned after every test to avoid odor disturbance. Spontaneous alternation was defined as a successive entry into three different arms on overlapping triplet sets.
Fig. 7 CS2 treatment is protective in mThy1-hSNCA mouse model of PD. (A) Experimental schematic of CS2 treatment in mThy1-hSNCA (Thy1) mouse model of PD: TAT or CS2 peptide was administered (3 mg/kg/day) via subcutaneous osmotic pump (O.P.) in Thy1 mice and their wild-type (WT) littermates starting from age of 4-month till 10-month. […] (D) Representative images of pS129-αSyn staining in substantia nigra of WT and Thy1 mice treated with TAT or CS2 peptide (scale bar = 100 μm). […] (G) Representative images of ClpP and tyrosine […] (TH) staining on the brain coronal sections from TAT or CS2-treated Thy1 mice and their WT littermates (scale bar = 100 μm). […]

mThy1-hSNCA mice [2] = experiment: Open-field test in mThy1-hSNCA mice; type: in vivo, mouse; conditions: 3 mg/kg/day s.c.; age of 8-month; n = 12-15 mice/group; vs TAT
Description: as §1
The locomotor activity of all experimental mice was assessed in an open field chamber at 8-month-old. Briefly, the mice were placed in the center of an activity chamber (Omnitech Electronics) and allowed to explore the chamber while being tracked using an automated infrared tracking system (Vertax, Omnitech Electronics). A 24-hour locomotor activity analysis was performed. Both horizontal and vertical activity/movements were recorded.

SH-SY5Y cells = experiment: Mitochondrial membrane potential (TMRM) in SH-SY5Y cells; type: cell-based; conditions: SH-SY5Y expressing Venus-αSyn, n = 8
Description: Cells cultured on coverslips or 24-well plates were washed with DPBS and then incubated with 0.25 µM Tetramethylrhodamine, methyl ester (TMRM) (Invitrogen, T668), for 20 min at 37 °C. For cells cultured on coverslips, the images were visualized by microscope, and quantification of images was then carried out using NIH Fiji ImageJ software. At least 100 cells per group were counted in the analysis.

[3] = test system: αSyn oligomerization (VN/VC-αSyn), SH-SY5Y cells; experiment: BiFC split-Venus αSyn oligomerization in SH-SY5Y cells; type: cell-based
From the text: To construct truncated-αSyn plasmids, pcDNA3.1(-) was digested with BsteII and XbaI, and ΔN-, ΔC- and ΔNAC-αSyn was PCR-amplified using self-designed primers and inserted into the plasmid backbone. Cells were transfected with TransIT-2020 (Mirus Bio, LLC) following the manufacturer’s protocol.
The bimolecular fluorescence was examined 24-hour after transfection (n = 3, one-way ANOVA with Tukey’s post-hoc test, scale bar = 30 μm). (D) Quantification of the concentration (ng/ml) of extracellular αSyn monomer and oligomer, and intracellular αSyn oligomer in Tet-inducible SH-SY5Y cells that were pre-treated with TAT or CS2 peptide 30-minute before adding doxycycline (Dox) to induce αSyn expression. The concentration of αSyn species was determined by ELISA (n = 4, one-way ANOVA with Tukey’s post-hoc test; data are mean ± SEM). (E) Representative images of Mito-SOX staining in SH-SY5Y cells that were pre-treated with TAT or CS2 peptide and transfected with split Venus-αSyn vectors. Mitochondrial ROS production was determined by Mito-SOX staining after 24-hour transfection (n = 4, two-tailed Student’s t test, scale bar = 30 μm).
The bimolecular fluorescence was examined 24-hour after the transfection and quantitated (n = 14 areas/group, one-way ANOVA with Tukey’s post-hoc test, data are mean ± SEM).

In the case of `CC(C)[C@H](NC(=O)CNC(=O)CNC(=O)CCCCCNC(=O)[C@H](CCCNC(=N)N)NC(=O)[C@H](CCCNC(=N)N)NC(=O)[C@H](CCCNC(=N)N)NC(=O)[C@H](CCC(N)=O)NC(=O)[C@H](CCCNC(=N)N)NC(=O)[C@H](CCCNC(=N)N)NC(=O)[C@H](CCCCN)NC(=O)[C@H](CCCCN)NC(=O)[C@H](CCCNC(=N)N)NC(=O)CNC(=O)[C@@H](N)Cc1ccc(O)cc1)C(=O)N[C@H](C(=O)N[C@H](C(=O)N[C@@H](C)C(=O)O)[C@@H](C)O)C(C)C` [CS2, TAT-C6-GGVVTA], the “effects on wild-type littermates” value (wild-type littermates) was “no observable effects on wild-type littermates”, the “cognitive activity in Y-maze” value (mThy1-hSNCA mice [1]; 3 mg/kg/day s.c., age of 6-month, n = 15 mice/group, vs TAT) was “improved cognitive activity” and the “spontaneous alternation, dose dependence” value (mThy1-hSNCA mice [1]; 1, 3 or 10 mg/kg/day s.c. osmotic mini pump, 8 weeks from 4 months, tested at 6 months, n = 3 mice/group) was “improved spontaneous alternation behavior in a dose-dependent manner”. For the same molecule, the “spontaneous alternation, 3 vs 10 mg/kg/day” value (mThy1-hSNCA mice [1]; s.c., 8 weeks, comparison of 3 and 10 mg/kg/day) was “no significant difference between 3 and 10 mg/kg/day”, the “locomotor activity, open field” value (mThy1-hSNCA mice [2]) was “ameliorated locomotor activity” and the mitochondrial membrane potential (SH-SY5Y cells) was “rescued upon CS2 treatment”. The “αSyn oligomerization, ClpP-deficient cells” value ([3]; ClpPsh SH-SY5Y, effect of reducing αSyn oligomerization, n = 14 areas/group) was “no protective effect; also recorded: not observed in ClpP-deficient cells”, the “BiFC signal / αSyn oligomerization” value ([3]; SH-SY5Y expressing VN/VC-αSyn, 24-hour after transfection) was “significantly reduced BiFC signal intensity” and the pIC50 ([3]; SH-SY5Y expressing VN/VC-αSyn, pretreatment, 24-hour after transfection, n = 3, read-out: IC50, BiFC αSyn oligomer formation) was roughly 5.60.
